Measurements reported in patent US20240307220A1, “Combination Therapy to Treat Temperature Sensitive Mutant Tumors” (H. LEE MOFFITT CANCER CENTER AND RESEARCH INSTITUTE INC., priority 2021, published 2024).

Legend:
[1] = tested on: P53 binding to PUMA promoter; experiment: ChIP of p53 binding to PUMA promoter in H1299 stably expressing p53 mutants; type: cell-based, human; settings: 0.5 μM CPT at 32° C. for 20 hrs
Procedure: FIGS. 1B and 1C show representative p53 ts mutants stably expressed in H1299 cells tested for induction of target gene expression after 20 hrs at 32° C. CPT (0.5 μM for 20 hrs) was added when cells were shifted to 32° C. […] P53 binding to PUMA promoter was determined by ChIP. The results are average of 3 experiments (mean±SD).
Chromatin immunoprecipitation (ChIP). ChIP assay was performed using standard procedure. Crosslinked p53-DNA complexes were immunoprecipitated with DO-1 antibody. Samples were subjected to SYBR Green real-time PCR analysis using forward and reverse primers for the p53 binding sites in the p21 promoter ([…] (SEQ ID NO:7) and […] (SEQ ID NO:8)), and PUMA promoter ([…] (SEQ ID NO:9) and […] (SEQ ID NO:10)).

GA10 tumors = experiment: GA10 subcutaneous tumor xenografts in nude mice treated with CPT with or without hypothermia; type: in vivo
Procedure: (§1) FIGS. 7A to 7E show hypothermia cooperates with chemotherapy to induce regression of tumors expressing ts p53. […] CPT (1.5 mg/kg) was given at the beginning of each hypothermia cycle. Average size of tumors was plotted over time (mean±SD). FIG. 7B contains pictures of a GA10 partial response tumor before and after treatment. FIG. 7C is a waterfall plot showing combined results of 3 experiments. Tumors with durable remission are marked as “cured”. FIG. 7D contains individual growth curves of representative GA10 tumors from FIG. 7A that achieved durable remission after treatment. FIG. 7E contains individual growth curves of GA10 tumors from FIG. 7A that relapsed and received re-treatment.
FIGS. 14A to 14D show effect of low-dose CPT treatment alone on tumor growth. […] Tumor growth at 37° C. (without hypothermia treatment) was determined at indicated time points. […] Tumor growth at 37° C. (without hypothermia treatment) was determined at indicated time points. […] When tumors reached approximately 100 mm^3 the mice were injected i.p. with 1.5 mg/kg CPT every 3 days. Tumor growth was monitored over time (mean±SD). […] Average size of tumors was plotted over time.
Animal experiment. Animal experiments were reviewed and approved by the University of South Florida IACUC. Athymic female nude mice (6-week old, Athymic Nude-Foxn1nu, Envigo) were injected subcutaneously with 0.1 ml 1:1 slurry of Matrigel (VWR 47743-715) and 1×10^7 cells in PBS at each site. The inoculated mice were housed in a cabinet set to 28° C. (ARIA BIO-C36 ventilated cabinet, TECNIPLAST) to ensure that tumors develop at ˜37° C. Each mouse received injections at 2 sites, tumors formed at >80% of sites injected with GA10 cells. N^6-cyclohexyladenosine (CHA, Sigma C9901) was dissolved at 20 mg/ml in 25% (2-Hydroxypropyl)-β-cyclodextrin (w/v, Sigma H107) and heated at 65° C. for 10 min to ensure dissolution. Camptothecin (CPT, Santa Cruz Biotechnology sc-200871B) was freshly dissolved in 1 N NaOH, diluted to ˜0.5 mg/ml with saline, and adjusted to pH10 using HCl. To induce hypothermia, 0.2 ml saline+10% glucose containing CHA and CPT was administered by intra peritoneal injection to provide a CHA dosage of 10 mg/kg body weight and CPT (when indicated) dosage of 1.5 mg/kg body weight. The mice were kept in the 28° C. cabinet and monitored using infrared thermal imaging camera (FLIR ONE Pro, FLIR® Systems, Inc.) to verify that body temperature was maintained at ˜32° C. A second injection of CHA (10 mg/kg) in 0.4 ml saline+10% glucose was given after 10 hours to maintain hypothermia for ˜24 hours. A third injection of CHA (10 mg/kg) in 0.4 ml saline+10% glucose was given after 10 hours to maintain hypothermia for ˜32 hours. […]

GA10-p53KO tumors = experiment: GA10-p53KO subcutaneous tumor xenografts in nude mice treated with CPT and hypothermia; type: in vivo; settings: 32 hr×5 format
Procedure: as §1
Animal experiment. Animal experiments were reviewed and approved by the University of South Florida IACUC. Athymic female nude mice (6-week old, Athymic Nude-Foxn1nu, Envigo) were injected subcutaneously with 0.1 ml 1:1 slurry of Matrigel (VWR 47743-715) and 1×10^7 cells in PBS at each site. The inoculated mice were housed in a cabinet set to 28° C. (ARIA BIO-C36 ventilated cabinet, TECNIPLAST) to ensure that tumors develop at ˜37° C. […] The mice were kept in the 28° C. cabinet and monitored using infrared thermal imaging camera (FLIR ONE Pro, FLIR® Systems, Inc.) to verify that body temperature was maintained at ˜32° C. […]

For CC[C@@]1(O)C(=O)OCc2c1cc1n(c2=O)Cc2cc3ccccc3nc2-1 [CPT, Camptothecin], the “PUMA promoter binding by the ts mutants (ChIP)” value [1] was “further stimulated the binding”, the “GA10 tumor growth, CPT alone” value (GA10 tumors; 1.5 mg/kg CPT i.p., 37° C., no hypothermia) was “modestly inhibited GA10 tumor growth at 37 °C but did not cause shrinkage” and the “response to CPT, GA10 versus GA10-p53KO tumors” value (GA10 tumors; 1.5 mg/kg CPT, 37° C. body temperature (p53 inactive)) was “no difference in response to CPT”. The “GA10 tumor response to hypothermia+CPT combination” value (GA10 tumors; CPT 1.5 mg/kg, 32° C. hypothermia, 32 hr×5 format) was “significant regression”, the “GA10 tumors that did not relapse” value (GA10 tumors; hypothermia+CPT, 32 hr×5 format, 50-day observation period after stopping treatment (12/37)) was 32% and the “GA10-p53KO complete response or durable remission” value (GA10-p53KO tumors; CPT 1.5 mg/kg and 32° C. hypothermia) was “did not achieve complete response or durable remission”. For the same compound, the “GA10-p53KO tumor size change” value (GA10-p53KO tumors; p53-independent effects of CPT and hypothermia) was “modest shrinkage”.
